Reference: patent US9814697B2, “Composition for nonalcoholic fatty liver disease (NAFLD)” (Cadila Healthcare Limited, priority 2013, dated 2017)

Key:
[1] = tested on: subjects with biopsy proven NASH; experiment: Prospective, multi-centric, open-label, single arm study in Non-alcoholic steatohepatitis: safety and tolerability; type: in vivo, human
Experimental: (§1) Title of the Study—“A prospective, multi-centric, open-label, single arm study to evaluate the safety and efficacy of 4 mg of magnesium salt of compound of formula (I) wherein R is -SMe in a pharmaceutical composition as described above in Non-alcoholic steatohepatitis.”
(§2) To evaluate the safety and efficacy of 4 mg of magnesium salt of compound of formula (I) wherein R is -SMe in Non-alcoholic steatohepatitis (NASH).
(§3) • Primary Efficacy (Time Frame 6 and 12 Weeks): • 1. Change in alanine aminotransferase (ALT) from baseline • Secondary Efficacy (Time Frame 6 and 12 Weeks): • Sustained reduction in ALT level. • C-peptide test for homeostasis model assessment (HOMA) beta and HOMA IR • Triglyceride (TG) Criteria for Safety: • 1. General and Systemic Clinical Examination: Cardiovascular system (CVS), respiratory system (RS), gastro-intestinal system (GIS), central nervous system (CNS) etc. • 2. Laboratory Investigations: Complete blood count (CBC), aspartate aminotransferase(AST), ALT, alkaline phosphatase (ALP), serum bilirubin, γ-glutamyl transpeptidase (GGT), Serum proteins, blood urea nitrogen (BUN), Serum creatinine, creatinine phosphokinase (CPK), fasting plasma glucose (FPG). • 3. Frequency and severity of adverse events (AEs) for all subjects enrolled were recorded. All AEs, were classified using • causality • severity • seriousness Methodology:
(§4) It is an interventional, single arm, safety and efficacy study to explore effect of magnesium salt of compound of formula (I) wherein R is -SMe suitably formulated as described above, on NASH.
(§5) All subjects were given suitable formulation of magnesium salt of compound of formula (I) wherein R is -SMe 4 mg for 12 weeks. Lifestyle modification was continued as before the study. Patient was monitored for safety and efficacy of magnesium salt of compound of formula (I) wherein R is -SMe.
(§6) After Clinical evaluations, all baseline safety and efficacy parameters were recorded as per Table (I) given below. All laboratory investigations were carried out after overnight fasting.
Subjects were clinically examined and given the study medications for four weeks and also safety parameters were assessed as per Table (I)given below.
(§7) Safety and efficacy parameters were assessed as per Table (I) given below.
Subjects were clinically examined and safety and efficacy parameters were assessed as per Table (I) given below.
If further investigations are required in case of any AE, investigator will be advised to assess the AE and take necessary action, if required. Subjects will be advised to contact the investigator for any complaints within next two weeks. […]

[2] = tested on: subjects with biopsy proven NASH; experiment: Prospective, multi-centric, open-label, single arm study in Non-alcoholic steatohepatitis: efficacy parameters; type: in vivo, human
Experimental: as §1, §2, §3, §4
Subjects was diagnosed by biopsy as suffering from NASH in last one year and willing to participate in study were invited for screening programme for inclusion in the study.
as §5, §6, §7
Subjects were clinically examined and safety and efficacy parameters were assessed as per Table (I) given below. […]

[3] = 4 mg, during the study, mild, none considered clinically significant by the investigator
[4] = 4 mg, Safety Population, at Week 3 and at Week 4 (so in the source), FIG. 2
[5] = 4 mg, at 6 and 12 weeks, PP analysis, FIG. 3

CCO[C@@H](Cc1ccc(OCCn2c(C)ccc2-c2ccc(SC)cc2)cc1)C(=O)[O-].CCO[C@@H](Cc1ccc(OCCn2c(C)ccc2-c2ccc(SC)cc2)cc1)C(=O)[O-].[Mg+2]
Overall safety and tolerability ([1]; 4 mg for 12 weeks, NASH patients): safe and well tolerated | Changes from baseline in various laboratory parameters ([1]; 4 mg treatment arm): no persistent changes from baseline | Deaths or SAEs reported ([1]; 4 mg treatment arm): no deaths or SAEs | Overall incidence of AEs ([1]; 4 mg treatment arm): Nil | Change in weight compared to baseline ([1]; 4 mg, NASH patients, visit 2, 3 and 4): no significant change in weight | Events of raised CPK value [1, 3]: five | Events of raised creatinine [1, 3]: Few events | Change in ALT levels from baseline ([2]; 4 mg for 12 weeks, NASH patients, PP population, visit 3 (week 6) and visit 4 (week 12), FIG. 1): statistically significant reduction | Patients with sustained reduction in ALT levels ([2]; 4 mg, PP population, visit 3 (week 6)): 63.16 % of patients | Patients with sustained reduction in ALT levels ([2]; 4 mg, PP population, visit 4 (week 12)): 78.95 % of patients | Change in Aspartate Transaminase [2, 4]: statistical significant decrease | Change in alkaline phosphatase [2, 4]: statistical significant decrease | Change in gamma-glutamyl transpeptidase [2, 4]: statistical significant decrease | Change in C peptide levels [2, 5]: non-significant change | Change in HOMA-Beta cell function [2, 5]: non-statistically significant reduction | Change in HOMA-Insulin Resistance [2, 5]: non-statistically significant reduction | Decrease in triglyceride as compared to baseline ([2]; 4 mg, patients with baseline TG<150 mg/dl, week 12, PP population, FIG. 4): not statistically significant | Decrease in serum triglycerides as compared to baseline ([2]; 4 mg, patients with baseline TG≧150 mg/dl, week 6 and 12, PP population, FIG. 4): not statistically significant
